Measurements published in patent US9943687B2, “Method of treating parkinson's disease and other movement disorders” (Duke University, priority 2007, dated 2018).
Several values for one entry are separate records, joined by “and”; a condition that tells them apart may be missing. Equal entries are not always repeated.

What was measured:
DAT-KO mice [1] = test: Minimum L-DOPA dose (alone or with DCS) required to restore locomotion; type: in vivo; details: AMPT-treated DAT-KO mice
Description: (§1) Rats were placed in a circular open-field (90 cm diameter) for 70 min (10 min adaptation and 1 h behavioural recording). The animals were then allowed to rest in its home cage for one hour. After that, the animals were reintroduced into the open-field and dorsal column stimulation (DCS) was applied every 10 minutes for 30 seconds. In mice, locomotion was documented both by video recordings and through an automated tracking system based in infra-red beams (Med Associates Inc., VT). Recordings were obtained before and after dopamine-depletion, and DCS was applied as described below.
(§2) The movements of the rats in the open-field were extracted from the digitized video recordings, with approximately 1 mm spatial resolution, with custom designed algorithms implemented in command interpreting software (The MathWorks Inc., MA). For mice, scored locomotion from the infra-red tracking system was binned into 500 ms bins (original resolution 50 ms). For locomotion extraction from video data, single frames with a 500 ms interval were used.
In order to find the minimum dose of L-DOPA (alone or combined with DCS) required to restore locomotion, a severely dopamine-depleted akinetic animal model was used, namely mice lacking the gene for the presynaptic dopamine membrane transporter (DAT-KO). […]

DAT-KO mice [2] = test: LFP spectral index in severely dopamine depleted animals; type: in vivo; details: last hours of testing period, coinciding with onset of locomotion
Description: FIG. 20. Local field potentials are shifted to higher frequencies as a result of DCS even in severely dopamine depleted animals. Average spectral indices (power ratio: [25-55]/[1.5-25] Hz) calculated for DCS+L-DOPA (black) and L-DOPA (grey) treated animals, respectively. DCS induced spectral changes even at the lowest L-DOPA dose tested (a single 1 mg/kg injection) while the spectral change in the L-DOPA only group occurred during the last hours of the testing period (after more than 20 mg/kg L-DOPA in total) coinciding with onset of locomotion.
Struck by the dramatic functional recovery on the behavioral level, the electrophysiological changes associated with motor improvements were analyzed next. […] The spectral shift was maintained throughout the stimulation period and lasted for ˜50 s following the off-set of stimulation. This indicates a prolonged shift in the activity state of these brain structures, also ruling out any major effects of contamination in the spectrograms from stimulation currents (FIG. 16C). To condense the spectral shift into a single measure, a spectral index was computed by dividing the spectral range analyzed into an upper and lower half and calculating the ratio of the summed power of the frequencies in the two intervals [(25-55 Hz)/(1.5-25 Hz)]. […]

tyrosine hydroxylase = test: Tyrosine hydroxylase staining and quantification in striatum of 6-OHDA lesioned rats; type: in vivo, Long-Evans rats; details: 6-OHDA three sites each side, 7 μg per site
Description: Rats received a total of […] 6-OHDA, injected in 3 locations of the striatum on each side. The injections contained a saline solution with 3.5 mg/ml 6-OHDA and 0.05% ascorbate. Anteroposterior, mediolateral and dorsoventral coordinates for the injections were: +1.0, +/−3.0, −5.0; −0.1, +/−3.7, −5.0 and −1.2, +/−4.5 and −5.0 (Winkler et al, Neurobiol. Dis. 10:165 (2002)).
The extent and position of striatal lesions was confirmed by TH immunohistochemistry. For quantification of TH-staining, digital photos of the individual sections were taken with a 16× microscope (Stemi 2000-c, Zeiss) under identical illumination conditions. The range in brightness was practically identical for every photo ranging from no light (inside the microscope) at the outer edge to the brightest non-stained part of each section. Images were converted to grey-scale bitmap format with an 8-bit dynamic range in brightness.

corticostriatal circuit = test: Corticostriatal LFP oscillations / dopamine spectral index after AMPT injection; type: in vivo, C57/J (wild type) male mice; details: after AMPT injection 250 mg/kg i.p.
Description: Two C57/J (wild type) male mice where implanted with peripheral nerve cuff electrodes, microwire electrodes arrays in the striatum and motor cortex and one EMG wire in the trapezium muscle. After a week of recovery, a series of experiments were carried out. Individual animals were introduced to the open field activity (OFA) monitor cage, which permitted tracking of the animal's locomotive activity. After 10 minutes, the animal was injected with AMPT (250 mg/kg, i.p.) to produce a partial depletion in dopamine brain levels. The stimulation started 15 minutes after the injection. It was delivered in 2-minute windows, alternated with 2 minutes of rest (no stimulation). The amplitude was fixed at 0.4 mA. This value was selected on the basis that it produced a noticeable effect on the animal (soft scratching of the whiskers pads) at the onset of stimulation but no further signs of discomfort or pain. Sixteen different frequency values delivered in a pseudorandom way (1-130 Hz) were tested.
The key observation in these experiments was that IS at some frequencies could revert this strong neural oscillation pattern to the type of desynchronized firing activity observed during the control period. […] In order to quantify this observation, the ratio between the LFP power in the 2-4 Hz and 0-4 Hz range was used as an indicator of the predominant oscillatory pattern (FIG. 6). […]

wild-type mice [3] = test: Catalepsy test (forepaws on bar 3 cm above the ground); type: in vivo, wild-type C57/BL6J mice; details: after the 6 h depletion period
Description: The first set of experiments was carried out using an inducible mouse model of PD, first in wild-type animals and then in dopamine-transporter knock-out (DAT-KO) mice (Sotnikova et al, PLoS Biol. 3:e271 (2005)). Through pharmacological inhibition of dopamine synthesis, acute dopamine depletion was induced in both types of animals in order to reliably document the effects of DCS during a severe parkinsonian-like state of akinesia. In agreement with previous experiments, the characteristic behavioral and electrophysiological changes following inhibition of dopamine synthesis was confirmed in these animals (Carlsson, Acta Neurol. Scand. Suppl 51:11 (1972), Costa et al, Neuron. 52:359 (2006), Sotnikova et al, PLoS Biol. 3:e271 (2005)). In patients, the cardinal symptoms of idiopathic PD, rigidity, resting tremor and brady-/hypokinesia, have been reported to be clinically apparent following degeneration of 60-70% of the dopaminergic neurons of the substantia nigra pars compacta, which in turn results in a […] reduction of striatal dopamine levels (Brooks et al, Biol. Psychiatry 59:908 (2006), Lloyd et al, J. Pharmacol. Exp. Ther. 195:453 (1975)). […]

[4] = system: striatal levels of dopamine; test: Tissue content analysis of striatal dopamine and metabolites (HPLC-EC) after AMPT; type: in vivo, wild-type C57/BL6J mice
Description: FIGS. 11A-11C. Tissue content analysis confirms that acute pharmacological dopamine depletion in wild-type mice leads to striatal dopamine levels similar to those observed in PD patients. […] Average quantities in depleted animals were reduced for dopamine, DOPAC and HVA to: 4.5 ng, 0.17 ng and 0.41 ng per mg tissue, respectively, compared to 14.4 ng, 0.74 ng and 1.36 ng per mg tissue, for saline injected control animals (**=p<0.005, Mann-Whitney test, n=6 in each group). Tissue content analysis of dopamine and metabolites.
Striatal tissue content of dopamine was assessed using high performance liquid chromatography with electrochemical detection, as previously described. Striata were rapidly dissected, frozen, and stored at −80° C. Later, tissue samples were homogenized in 0.1M HClO4 containing 100 ng/ml 3,4-dihydroxybenzylamine (DHBA) as an internal standard. Homogenates were centrifuged for 10 min at 10,000×g. Supernatants were filtered through 0.22 μm filter and analyzed for levels of dopamine using HPLC-EC. Monoamines and metabolites were separated on a microbore reverse-phase column (C-18, 5 μm, 1×150 mm, Unijet, BAS). The volume of injection was 5 μl.
(§3) The first set of experiments was carried out using an inducible mouse model of PD, first in wild-type animals and then in dopamine-transporter knock-out (DAT-KO) mice (Sotnikova et al, PLoS Biol. 3:e271 (2005)). Through pharmacological inhibition of dopamine synthesis, acute dopamine depletion was induced in both types of animals in order to reliably document the effects of DCS during a severe parkinsonian-like state of akinesia. In agreement with previous experiments, the characteristic behavioral and electrophysiological changes following inhibition of dopamine synthesis was confirmed in these animals (Carlsson, Acta Neurol. Scand. Suppl 51:11 (1972), Costa et al, Neuron. 52:359 (2006), Sotnikova et al, PLoS Biol. 3:e271 (2005)). In patients, the cardinal symptoms of idiopathic PD, rigidity, resting tremor and brady-/hypokinesia, have been reported to be clinically apparent following degeneration of 60-70% of the dopaminergic neurons of the substantia nigra pars compacta, which in turn results in a […] reduction of striatal dopamine levels (Brooks et al, Biol. Psychiatry 59:908 (2006), Lloyd et al, J. Pharmacol. Exp. Ther. 195:453 (1975)). […] Secondly, a pronounced muscle tremor was evident during resting periods, which was reflected in characteristic oscillatory patterns in electromyographic (EMG) recordings obtained from chronically implanted microwires in the nuchal muscles (FIG. 12). This tremor was suppressed during locomotion bouts. […] (FIG. 13A, see also Drouot et al, Neuron 44:769 (2004) and Sakai et al, Brain Res. 633:144 (1994)).

[5] = system: striatal dopamine concentrations; details: cited from earlier work
wild-type mice [6] = test: Open-field locomotion after acute pharmacological dopamine depletion; type: in vivo, wild-type C57/BL6J mice
Description: as §1, §2
The number of bins used for histograms of locomotion speeds was adjusted according to the maximum speed scored in a single bin in the slowest condition (i.e. 500 mm/s for the rats and 180 mm/s for the mice). The relatively few (<0.3%) events with locomotion components faster than the upper limit found in the other conditions were assigned to the fastest bin. The number of events within each speed interval was summed and the relative change in response to DCS was calculated. A lower threshold just above the quantal step was used in the analysis of histogram distributions, i.e. 10 mm/500 ms for both mouse and rat data.
as §3

[7] = two i.p. injections of 250 mg/kg, 2 hours apart, measured 4 hours after last injection, n=6

N[C@@H](Cc1ccc(O)c(O)c1)C(=O)O [L-DOPA]
L-DOPA injection dose at which locomotion first occurred (DAT-KO mice [1]; L-DOPA injections every hour with increasing dose): 5 mg/kg
total L-DOPA dose when locomotion first occurred (DAT-KO mice [1]; cumulative dose of hourly injections): 15 mg
total L-DOPA dose at which spectral change occurred (DAT-KO mice [2]): more than 20 mg/kg

NCCc1cc(O)c(O)cc1O [6-OHDA]
tyrosine hydroxylase staining relative to sham treated controls (tyrosine hydroxylase): ~20% and 21%

CC(N)(Cc1ccc(O)cc1)C(=O)O (stereo not drawn) [AMPT, α-methyl-p-tyrosine]
frequency of strong LFP synchronization after dopamine depletion (corticostriatal circuit): 4 Hz
dopamine spectral index (LFP power 2-4 Hz / 0-4 Hz) (corticostriatal circuit; basal value around 0.5): ~1
catalepsy: time unable to remove the forepaws from bar (wild-type mice [3]): at least 30 s
reduction of striatal dopamine levels ([4]; two i.p. injections (250 mg/kg) during a 6 h period): 69%
striatal DOPAC tissue content in depleted animals [4, 7]: 0.17 ng per mg tissue
striatal HVA tissue content in depleted animals [4, 7]: 0.41 ng per mg tissue
striatal dopamine tissue content in depleted animals ([4]; two i.p. injections of 250 mg/kg, 2 hours apart, measured 4 hours after last injection, n=6, 250 mg/kg): 4.5±2.0 ng per mg tissue and 4.5 ng per mg tissue
dopamine levels after AMPT in DAT-KO mice ([5]; 250 mg/kg i.p.): virtually undetectable levels
duration of severe akinesia, rigidity and tremors ([5]; DAT-KO mice treated with AMPT): up to 16 hours
striatal dopamine concentration relative to control animals ([5]; DAT-KO mice treated with AMPT): 0.2%
average amount of locomotion as percentage of control values (wild-type mice [6]; depleted animals during testing periods): ~10%
average locomotion score in open-field (mean±SEM) (wild-type mice [6]; depleted animals, n=14): 0.4±0.02 mm/s
locomotion score, fast movements, as percentage of non-depleted animals (wild-type mice [6]; fast speed interval): 0.3%
locomotion score, medium movements, as percentage of non-depleted animals (wild-type mice [6]; medium speed interval): 2.0%
locomotion score, slow movements, as percentage of non-depleted animals (wild-type mice [6]; slow speed interval): 10.5%
